The values below are quoted from earlier work in patent publication US6426338B1, “Therapy for constipation” (priority 1997, dated 2002).

Molecules are shown by their SMILES.

In data set [1] the test system is patients with constipation. The settings on record: colchicine alone, in a lower dose.

Take `COc1cc2c(c(OC)c1OC)-c1ccc(OC)c(=O)cc1[C@@H](NC(C)=O)CC2` [colchicine]: the long-term toxicity entry (given alone in the doses of Verne et al., long-term) is “can cause muscle and nerve damage (myopathy and neuropathy)”. In data set [1], the stimulation of defecation entry was “insufficient in most patients to stimulate defecation”.
As to `CN[C@H](CC(C)C)C(=O)N[C@H]1C(=O)N[C@@H](CC(N)=O)C(=O)N[C@H]2C(=O)N[C@H]3C(=O)N[C@H](C(=O)N[C@H](C(=O)O)c4cc(O)cc(O)c4-c4cc3ccc4O)[C@H](O)c3ccc(c(Cl)c3)Oc3cc2cc(c3O[C@@H]2O[C@H](CO)[C@@H](O)[C@H](O)[C@H]2O[C@H]2C[C@](C)(N)[C@H](O)[C@H](C)O2)Oc2ccc(cc2Cl)[C@H]1O` [vancomycin], the side-effect entry (long-term use as antibiotic) is “neurotoxic”.
